# Structures can show the parent of a compound that is named as a salt.
# Target: T1, Human CARM1 (PRMT4) (Homo sapiens, UniProt Q86X55)
# T1 construct: Flag-CARM1-His; made in house; host or cells: HEK 293F cells (BacMam baculovirus)
# T1 sequence (Q86X55 1-585 isoform Q86X55-1): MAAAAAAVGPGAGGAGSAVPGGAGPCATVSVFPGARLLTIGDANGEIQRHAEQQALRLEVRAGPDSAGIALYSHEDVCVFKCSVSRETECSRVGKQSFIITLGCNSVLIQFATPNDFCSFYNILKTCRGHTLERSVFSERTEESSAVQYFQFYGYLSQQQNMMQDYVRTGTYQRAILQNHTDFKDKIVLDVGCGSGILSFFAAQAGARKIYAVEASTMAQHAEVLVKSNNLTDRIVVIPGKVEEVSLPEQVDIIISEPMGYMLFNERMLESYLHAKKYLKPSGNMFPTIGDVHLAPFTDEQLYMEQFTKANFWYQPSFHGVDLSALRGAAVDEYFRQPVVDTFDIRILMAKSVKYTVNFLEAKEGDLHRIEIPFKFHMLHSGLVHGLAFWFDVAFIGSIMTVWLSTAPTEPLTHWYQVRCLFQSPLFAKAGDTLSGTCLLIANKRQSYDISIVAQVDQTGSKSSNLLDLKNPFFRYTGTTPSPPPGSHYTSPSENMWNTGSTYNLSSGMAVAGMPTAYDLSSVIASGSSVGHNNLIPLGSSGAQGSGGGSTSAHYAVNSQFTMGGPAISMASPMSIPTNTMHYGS
# Test: CARM1 Biochemical Assay (3H-SAM Flashplate, peptide substrate)
# Conditions: not given
# Excerpt: S-adenosylmethionine (SAM), S-adenosylhomocysteine (SAH), bicine, Tween20, dimethylsulfoxide (DMSO), bovine skin gelatin (BSG), sodium butyrate and Tris(2-carboxyethyl)phosphine hydrochloride solution (TCEP) were purchased from Sigma-Aldrich at the highest level of purity possible. ^3H-SAM was purchase from American Radiolabeled Chemicals with a specific activity of 80 Ci/mmol. 384-well streptavidin Flashplates were purchased from PerkinElmer.
# Peptide representative of human histone H3 residues 16-30 was synthesized with an N-terminal linker-affinity tag motif and a C-terminal amide cap by 21st Century Biochemicals. […] The sequence was Biot-Ahx-[…]-amide and contained a monomethylated arginine at position 26 (SEQ ID NO.: 14).
# Recombinant baculovirus were generated according to Bac-to-Bac kit instructions (Life Technologies). […] Infections were carried out at 37° C. for 48 hours, harvested by centrifugation, and stored at −80° C. for purification.
# Column was washed with 500 mM NaCl in buffer A and Flag-CARM1-His was eluted with 200 ug/ml FLAG peptide in buffer A. Pooled fractions were dialyzed in 20 mM Tris, 150 mM NaCl, 5% glycerol and 1 mM DTT, pH 7.8.
# General Procedure for CARM1 Enzyme Assays on Peptide Substrates.
# The assays were all performed in a buffer consisting of 20 mM Bicine (pH=7.6), 1 mM TCEP, 0.005% BSG, and 0.002% Tween 20, prepared on the day of use. […] DMSO (1 ul) was added to Columns 11, 12, 23, 24, rows A-H for the maximum signal control and 1 ul of SAH, a known product and inhibitor of CARM1, was added to columns 11, 12, 23, 24, rows I-P for the minimum signal control. A cocktail (40 ul) containing the CARM1 enzyme was added by Multidrop Combi (Thermo-Fisher). The compounds were allowed to incubate with CARM1 for 30 min at room temperature, then a cocktail (10 ul) containing ^3H-SAM and peptide was added to initiate the reaction (final volume=51 ul). […] The assays were stopped by the addition of non-radiolabeled SAM (10 ul) to a final concentration of 300 uM, which dilutes the ^3H-SAM to a level where its incorporation into the peptide substrate is no longer detectable. 50 ul of the reaction in the 384-well polypropylene plate was then transferred to a 384-well Flashplate and the biotinylated peptides were allowed to bind to the streptavidin surface for at least 1 hour before being washed once with 0.1% Tween20 in a Biotek ELx405 plate washer. The plates were then read in a PerkinElmer TopCount plate reader to measure the quantity of ^3H-labeled peptide bound to the Flashplate surface, measured as disintegrations per minute (dpm) or alternatively, referred to as counts per minute (cpm).
# Where dpm=disintegrations per minute, cmpd=signal in assay well, and min and max are the respective minimum and maximum signal controls.
# Where top and bottom are the normally allowed to float, but may be fixed at 100 or 0 respectively in a 3-parameter fit. The Hill Coefficient normally allowed to float but may also be fixed at 1 in a 3-parameter fit. Y is the % inhibition and X is the compound concentration.
row,SMILES,IC50 [µM]
1,"CNCCN(C)Cc1cnn(C)c1-c1ccc(OC(C)C)cc1 [Compound 244, hydrochloride]",< 0.1

# Same assay, conditions: single experiment or average of multiple experiments
row,SMILES,IC50 [µM]
1,Cc1ccc(-c2n[nH]cc2CN(C)CCN)c(F)c1 [Compound 108],1.53
2,CN(CCN)Cc1c[nH]nc1-c1ccc(OCC(F)(F)F)cc1 [Compound 96],0.0765
3,CN(CCN)Cc1n[nH]cc1-c1ccc(OC(F)(F)F)cc1 [Compound 105],3.06
4,COc1ccccc1-c1n[nH]cc1CN(C)CCN [Compound 109],5.21
5,CN(CCN)Cc1c[nH]nc1-c1cc(F)cc(F)c1 [Compound 111],0.458
6,CC(O)c1ccc(-c2n[nH]cc2CN(C)CCN)cc1 (stereo not shown) [Compound 115],3.53
7,CC(C)Oc1ccc(-c2n[nH]cc2CN(C)CCN)cc1F [Compound 97],0.511
8,CN(CCN)Cc1c[nH]nc1-c1ccc(C2CCOCC2)cc1 [Compound 98],0.439
9,CC(=O)c1cccc(-c2n[nH]cc2CN(C)CCN)c1 [Compound 112],2.44
10,CCn1cc(CN(C)CCNC)c(-c2ccc(F)cc2)n1 [Compound 8],3.46
11,COc1ccc(-c2n[nH]cc2CN(C)CCN)cc1Cl [Compound 125],1.44
12,CN(CCN)Cc1c[nH]nc1-c1ccc(C2CC2)cc1 [Compound 116],1.22
13,"CNCCN(C)Cc1cnn(C)c1-c1ccc(OC(C)C)cc1 [Compound 244, hydrochloride]",0.0925
14,CN(CCN)Cc1n[nH]cc1-c1ccc(Cl)cc1 [Compound 102],1.06
15,CN(CCN)Cc1n[nH]cc1-c1ccc(C(F)(F)F)cc1 [Compound 103],1.48
16,CC(C)c1ccc(-c2c[nH]nc2CN(C)CCN)cc1 [Compound 101],4.76
17,CN(CCN)Cc1c[nH]nc1-c1ccc(OC2CC2)cc1 [Compound 114],0.332
18,Cc1cc(C#N)ccc1-c1n[nH]cc1CN(C)CCN [Compound 110],8.77
19,CN(CCN)Cc1c[nH]nc1-c1ccc(F)cc1F [Compound 99],7.61
20,COc1ccc(-c2n[nH]cc2CN(C)CCN)c(F)c1 [Compound 107],2.86
21,CN(CCN)Cc1n[nH]cc1-c1ccc(C2CC2)cc1 [Compound 104],1.96
22,CCn1ncc(CN(C)CCNC)c1-c1ccc(F)cc1 [Compound 7],2.66
23,CN(CCN)Cc1c[nH]nc1-c1ccc(C(F)(F)F)c(Cl)c1 [Compound 117],0.602
24,CN(CCN)Cc1n[nH]cc1-c1ccc(C#N)cc1 [Compound 100],4.13
25,CN(CCN)Cc1c[nH]nc1-c1ccc(Cl)cc1F [Compound 132],2.11

# The next lines start with the values.
row,IC50 [µM],SMILES
1,2.7,CN(CCN)Cc1n[nH]cc1-c1ccc(OC(F)F)cc1 [Compound 138]
2,0.102,Cc1ccc(-c2n[nH]cc2CN(C)CCN)cc1Cl [Compound 126]
3,2.41,COc1cccc(-c2n[nH]cc2CN(C)CCN)c1 [Compound 130]
4,1.37,CN(CCN)Cc1c[nH]nc1-c1ccc(C(F)(F)F)c(F)c1 [Compound 141]
5,1.18,Cc1cccc(-c2n[nH]cc2CN(C)CCN)c1 [Compound 131]
6,1.29,COc1cc(-c2n[nH]cc2CN(C)CCN)ccc1F [Compound 142]
7,0.441,CN(CCN)Cc1n[nH]cc1-c1ccc(OC2CC2)cc1 [Compound 119]
8,2.42,Cc1c(F)cccc1-c1n[nH]cc1CN(C)CCN [Compound 129]
9,2.6,COc1ccc(-c2n[nH]cc2CN(C)CCN)cc1F [Compound 134]
10,0.849,CN(CCN)Cc1c[nH]nc1-c1cc(Cl)cc(Cl)c1 [Compound 137]
11,5.85,CCN(CC)C(=O)c1ccc(-c2n[nH]cc2CN(C)CCN)cc1 [Compound 143]
12,0.216,CN(CCN)Cc1c[nH]nc1-c1cc(F)cc(Cl)c1 [Compound 121]
13,1.12,COc1cc(Cl)cc(-c2n[nH]cc2CN(C)CCN)c1 [Compound 127]
14,4.62,CC(C)Oc1ccc(-c2c[nH]nc2CN(C)CCN)cc1F [Compound 144]
15,1.87,CN(CCN)Cc1c[nH]nc1-c1cccc(Cl)c1F [Compound 123]
16,2.07,CCNC(=O)c1ccc(-c2n[nH]cc2CN(C)CCN)cc1 [Compound 136]
17,0.405,CN(CCN)Cc1c[nH]nc1-c1cccc(Cl)c1 [Compound 122]
18,0.545,CN(CCN)Cc1c[nH]nc1-c1ccc(F)c(Cl)c1 [Compound 124]
19,0.114,CN(CCN)Cc1c[nH]nc1-c1ccc(Cl)c(F)c1 [Compound 118]
20,4.27,Cc1cc(Cl)ccc1-c1n[nH]cc1CN(C)CCN [Compound 133]
